ChEMBL document CHEMBL4837186, “Structural Elucidation of Garcipaucinones A and B From Garcinia paucinervis Using Quantum Chemical Calculations” (J Nat Prod, 2021)

Key:
Type in all cases: functional, cell-based
[1] = test system: MCF7; assay: Cytotoxicity against human MCF7 cells assessed as reduction in cell viability after 24 hrs by CCK8 assay; settings: MCF7, 24 h
[2] = test system: HepG2; assay: Cytotoxicity against human HepG2 cells assessed as reduction in cell viability after 24 hrs by CCK8 assay; settings: HepG2, 24 h
[3] = test system: RAW264.7; assay: Anti-inflammatory activity in mouse RAW264.7 cells assessed as inhibition of LPS-induced NO production after 24 hrs by Griess reagent-based assay; settings: RAW264.7, 24 h
[4] = test system: T98G; assay: Cytotoxicity against human T98 cells assessed as reduction in cell viability after 24 hrs by CCK8 assay

Compound	IC50 [1]	IC50 [2]	IC50 [3]	IC50 [4]
CC(C)=CCC/C(C)=C/CC/C(C)=C/CC[C@]1(C)CCC2=C(O1)[C@]1(C)C[C@@](O)(Oc3c1occc3=O)C2=O	> 20 µM	> 20 µM	> 20 µM	> 20 µM
C[C@@H]1C[C@H]2[C@@H]3CCC4=CC(=O)C=C[C@]4(C)[C@@]3(F)[C@@H](O)C[C@]2(C)[C@@]1(O)C(=O)CO [DEXAMETHASONE]	–	–	8.28 µM	–
CC(C)=CCC/C(C)=C/CC/C(C)=C/CC[C@]1(C)CCC2=C(O1)[C@@]1(C)C[C@](O)(Oc3c1occc3=O)C2=O	> 20 µM	> 20 µM	> 20 µM	> 20 µM
